In patent publication US5824771A, “Cyclic CRF agonists” (The Salk Institute for Biological Studies, priority 1997, dated 1998):
Bridge positions count the residues as written; N and C are the ends. Square brackets hold non-standard residues; d marks the D form. Peptide text beside a SMILES is read from it. Nle = CCCC[C@H](N)C(=O)O

What was measured:
[1] = test system: rat anterior pituitary cells; assay: In vitro stimulation of ACTH and β-endorphin secretion by cultured rat pituitary cells, potency compared with oCRF (Standard) or r/hCRF; format: cell-based; settings: for stimulation of secretion of ACTH and β-END-LI (testing by the general procedure), in words: general procedure of Example 1
Procedure: The cyclic CRF agonists are examined for their effects on the secretion of ACTH and β-endorphin in vitro and also in vivo. […] In vivo testing is carried out using the general procedure set forth in C. Rivier et al., Science, 218, 377 (1982).

[2] = Lowering of blood pressure on peripheral or iv administration; format: in vivo; settings: peripheral administration

| Structure (SMILES) | stimulation of secretion of ACTH and β-END-LI (testing by the general procedure), in words [1] | lowering of blood pressure when administered peripherally, in words [2] | in vitro biopotency, comparison in words ([1]; compared with the Standard or with a named analog) |
| --- | --- | --- | --- |
| CCCC[C@H](NC(=O)[C@H](CCC(=O)O)NC(=O)[C@H](CC(C)C)NC(=O)[C@H](CCCC)NC(=O)[C@H](CCC(=O)O)NC(=O)[C@H](CCCNC(=N)N)NC(=O)[C@H](CC(C)C)NC(=O)[C@H](CC(C)C)NC(=O)[C@H](Cc1c[nH]cn1)NC(=O)[C@@H](Cc1ccccc1)NC(=O)[C@@H](NC(=O)[C@H](CC(C)C)NC(=O)[C@H](CC(=O)O)NC(=O)[C@H](CC(C)C)NC(=O)[C@H](CO)NC(C)=O)[C@@H](C)O)C(=O)N[C@@H](C)C(=O)N[C@@H](CCCCN)C(=O)N[C@@H](C)C(=O)N[C@@H](CCC(=O)O)C(=O)N[C@@H](CCC(N)=O)C(=O)N[C@@H](CCC(=O)O)C(=O)N[C@@H](C)C(=O)N[C@@H](CCC(=O)O)C(=O)N[C@H]1CCC(=O)NCCCC[C@@H](C(=O)N[C@@H](CC(N)=O)C(=O)N[C@@H](CCCNC(=N)N)C(=O)N[C@@H](CC(C)C)C(=O)N[C@@H](CC(C)C)C(=O)N[C@@H](CC(C)C)C(=O)N[C@@H](CCC(=O)O)C(=O)N[C@@H](CCC(=O)O)C(=O)N[C@@H](C)C(N)=O)NC(=O)[C@@H](C)NC(=O)[C@H](C)NC1=O [Example 16 A, (cyclo 30-33)[Ac-Ser^7, D-Phe^12, Nle^18,21, Glu^30, D-Ala^32, Lys^33]-AHC(7-41)] (Ac-SLDLT[dF]HLLRE[Nle]LE[Nle]AKAEQEAEEA[dA]KNRLLLEEA-NH2; lactam 24-27) | strongly stimulates the secretion of ACTH and β-END-LI | very significant lowering of blood pressure |  |
| CCCC[C@H](NC(=O)[C@H](CCCCN)NC(=O)[C@H](CCCNC(=N)N)NC(=O)[C@H](CC(C)C)NC(=O)[C@H](CC(C)C)NC(=O)[C@H](CCC(=O)O)NC(=O)[C@@H](CC(C)C)NC(=O)[C@H](CO)NC(=O)[C@H](CC(C)C)NC(=O)[C@H](CC(=O)O)NC(=O)[C@@H](NC(=O)[C@H](CO)NC(C)=O)[C@@H](C)CC)C(=O)N[C@H](C(=O)N[C@@H](CCC(=O)O)C(=O)N[C@H](C(=O)N[C@@H](CCC(=O)O)C(=O)N[C@@H](CCCCN)C(=O)N[C@@H](CCC(N)=O)C(=O)N[C@@H](CCC(=O)O)C(=O)N[C@@H](CCCCN)C(=O)N[C@@H](CCC(=O)O)C(=O)N[C@@H](CCCCN)C(=O)N[C@@H](CCC(N)=O)C(=O)N[C@H]1CCC(=O)NCCCC[C@@H](C(=O)N[C@@H](CC(N)=O)C(=O)N[C@@H](CCCNC(=N)N)C(=O)N[C@@H](CC(C)C)C(=O)N[C@@H](CC(C)C)C(=O)N[C@@H](CC(C)C)C(=O)N[C@@H](CC(=O)O)C(=O)N[C@H](C(=O)N[C@H](C(N)=O)[C@@H](C)CC)[C@@H](C)O)NC(=O)[C@H](C)NC(=O)[C@H](C)NC1=O)[C@@H](C)CC)[C@@H](C)CC [Example 16 C, (cyclo 29-32)[Ac-Ser^6, D-Leu^11, Nle^17, Glu^29, Lys^32]-sauvagine(6-40)] (Ac-SIDLS[dL]ELLRK[Nle]IEIEKQEKEKQEAAKNRLLLDTI-NH2; lactam 24-27) | stimulates the secretion of ACTH and β-END-LI | very significant lowering of blood pressure |  |
| CCCC[C@H](NC(=O)[C@H](CCCCN)NC(=O)[C@H](C)NC(=O)[C@H](CCCNC(=N)N)NC(=O)[C@H](Cc1c[nH]cn1)NC(=O)[C@@H](NC(=O)[C@H](CCCC)NC(=O)[C@H](CC(N)=O)NC(=O)[C@H](CCCNC(=N)N)NC(=O)[C@H](CC(C)C)NC(=O)[C@H](CCCC)NC(=O)[C@H](Cc1c[nH]cn1)NC(=O)[C@@H](Cc1ccccc1)NC(=O)[C@@H](NC(=O)[C@H](CC(C)C)NC(=O)[C@H](CC(=O)O)NC(=O)[C@@H](NC(=O)[C@H](CO)NC(C)=O)[C@@H](C)CC)[C@@H](C)O)[C@@H](C)CC)C(=O)N[C@@H](CCC(=O)O)C(=O)NCC(=O)N[C@@H](CCC(=O)O)C(=O)N[C@@H](CCCNC(=N)N)C(=O)N[C@@H](CCC(=O)O)C(=O)N[C@H]1CCC(=O)NCCCC[C@@H](C(=O)N[C@@H](CC(N)=O)C(=O)N[C@@H](CCCNC(=N)N)C(=O)N[C@@H](CC(N)=O)C(=O)N[C@@H](CC(C)C)C(=O)N[C@@H](CC(C)C)C(=O)N[C@@H](CC(=O)O)C(=O)N[C@@H](CCC(=O)O)C(=O)N[C@H](C(N)=O)C(C)C)NC(=O)[C@@H](Cc2c[nH]cn2)NC(=O)[C@H](C)NC1=O [Example 16 E D-His^32 analog] (Ac-SIDLT[dF]H[Nle]LRN[Nle]IHRAK[Nle]EGEREEA[dH]KNRNLLDEV-NH2; lactam 24-27) | stimulate the secretion of ACTH and β-END-LI | very significant lowering of blood pressure | increases biopotency over that of the D-Leu^32 analog |
| CCCC[C@H](NC(=O)[C@H](CCCCN)NC(=O)[C@H](C)NC(=O)[C@H](CCCNC(=N)N)NC(=O)[C@H](Cc1c[nH]cn1)NC(=O)[C@@H](NC(=O)[C@H](CCCC)NC(=O)[C@H](CC(N)=O)NC(=O)[C@H](CCCNC(=N)N)NC(=O)[C@H](CC(C)C)NC(=O)[C@H](CCCC)NC(=O)[C@H](Cc1c[nH]cn1)NC(=O)[C@@H](Cc1ccccc1)NC(=O)[C@@H](NC(=O)[C@H](CC(C)C)NC(=O)[C@H](CC(=O)O)NC(=O)[C@@H](NC(=O)[C@H](CO)NC(C)=O)[C@@H](C)CC)[C@@H](C)O)[C@@H](C)CC)C(=O)N[C@@H](CCC(=O)O)C(=O)NCC(=O)N[C@@H](CCC(=O)O)C(=O)N[C@@H](CCCNC(=N)N)C(=O)N[C@@H](CCC(=O)O)C(=O)N[C@H]1CCC(=O)NCCCC[C@@H](C(=O)N[C@@H](CC(N)=O)C(=O)N[C@@H](CCCNC(=N)N)C(=O)N[C@@H](CC(N)=O)C(=O)N[C@@H](CC(C)C)C(=O)N[C@@H](CC(C)C)C(=O)N[C@@H](CC(=O)O)C(=O)N[C@@H](CCC(=O)O)C(=O)N[C@H](C(N)=O)C(C)C)NC(=O)[C@@H](CC(C)C)NC(=O)[C@H](C)NC1=O [Example 16 E, (cyclo 30-33)[Ac-Ser^7, D-Phe^12, Nle^14,18,24, Glu^30, D-Leu^32, Lys^33]-maggy urotensin(7-41)] (Ac-SIDLT[dF]H[Nle]LRN[Nle]IHRAK[Nle]EGEREEA[dL]KNRNLLDEV-NH2; lactam 24-27) | stimulate the secretion of ACTH and β-END-LI | very significant lowering of blood pressure |  |
| CCCC[C@H](NC(=O)[C@H](CCC(=O)O)NC(=O)[C@@H](NC(=O)[C@H](CCCC)NC(=O)[C@H](CC(N)=O)NC(=O)[C@H](CCCNC(=N)N)NC(=O)[C@H](CC(C)C)NC(=O)[C@H](CC(C)C)NC(=O)[C@H](Cc1c[nH]cn1)NC(=O)[C@@H](Cc1ccccc1)NC(=O)[C@@H](NC(=O)[C@H](CC(C)C)NC(=O)[C@H](CC(=O)O)NC(=O)[C@@H](NC(=O)[C@H](CO)NC(C)=O)[C@@H](C)CC)[C@@H](C)O)[C@@H](C)CC)C(=O)N[C@@H](C)C(=O)N[C@@H](CCCNC(=N)N)C(=O)N[C@@H](CC(N)=O)C(=O)N[C@@H](CCC(=O)O)C(=O)N[C@@H](CC(N)=O)C(=O)N[C@@H](CCC(N)=O)C(=O)N[C@@H](CCCNC(=N)N)C(=O)N[C@@H](CCC(=O)O)C(=O)N[C@H]1CCC(=O)NCCCC[C@@H](C(=O)N[C@@H](CC(N)=O)C(=O)N[C@@H](CCCNC(=N)N)C(=O)N[C@@H](CCCCN)C(=O)N[C@@H](Cc2ccc(O)cc2)C(=O)N[C@@H](CC(C)C)C(=O)N[C@@H](CC(=O)O)C(=O)N[C@@H](CCC(=O)O)C(=O)N[C@H](C(N)=O)C(C)C)NC(=O)[C@@H](C)NC(=O)[C@H](C)NC1=O [Example 16 F, (cyclo 30-33)[Ac-Ser^7, D-Phe^12, Nle^18,21, Glu^30, D-Ala^32, Lys^33]-carp urotensin(7-41)] (Ac-SIDLT[dF]HLLRN[Nle]IE[Nle]ARNENQREEA[dA]KNRKYLDEV-NH2; lactam 24-27) | stimulate the secretion of ACTH and β-END-LI | very significant lowering of blood pressure |  |
| CCCC[C@H](NC(=O)[C@H](CCCCN)NC(=O)[C@H](C)NC(=O)[C@H](CCCNC(=N)N)NC(=O)[C@H](Cc1c[nH]cn1)NC(=O)[C@@H](NC(=O)[C@H](CCCC)NC(=O)[C@H](CC(N)=O)NC(=O)[C@H](CCCNC(=N)N)NC(=O)[C@H](CC(C)C)NC(=O)[C@H](CCCC)NC(=O)[C@H](Cc1c[nH]cn1)NC(=O)[C@@H](Cc1ccccc1)NC(=O)[C@@H](NC(=O)[C@H](CC(C)C)NC(=O)[C@H](CC(=O)O)NC(=O)[C@@H](NC(=O)[C@H](CO)NC(C)=O)[C@@H](C)CC)[C@@H](C)O)[C@@H](C)CC)C(=O)N[C@@H](CCC(=O)O)C(=O)NCC(=O)N[C@@H](CCC(=O)O)C(=O)N[C@@H](CCCNC(=N)N)C(=O)N[C@@H](CCC(=O)O)C(=O)N[C@H]1CCC(=O)NCCCC[C@@H](C(=O)N[C@@H](CC(N)=O)C(=O)N[C@@H](CCCNC(=N)N)C(=O)N[C@@H](CC(N)=O)C(=O)N[C@@H](CC(C)C)C(=O)N[C@@H](CCCC)C(=O)N[C@@H](CC(=O)O)C(=O)N[C@@H](CCC(=O)O)C(=O)N[C@H](C(N)=O)C(C)C)NC(=O)[C@@H](CC(C)C)NC(=O)[C@H](C)NC1=O [Example 16 G, (cyclo 30-33)[Ac-Ser^7, D-Phe^12, Nle^14,18,24,38, Glu^30, D-Leu^32, Lys^33]-sole urotensin(7-41)] (Ac-SIDLT[dF]H[Nle]LRN[Nle]IHRAK[Nle]EGEREEA[dL]KNRNL[Nle]DEV-NH2; lactam 24-27) | stimulate the secretion of ACTH and β-END-LI | very significant lowering of blood pressure |  |
